Data from paper PMC8379256, “A xanthene derivative, DS20060511, attenuates glucose intolerance by inducing skeletal muscle-specific GLUT4 translocation in mice” (Communications Biology, 2021).
“And” between values parts separate entries of the source, which are not always exact repeats. Equal entries are not always repeated.

System: db/db mice
Assay: Repeated (28-day) DS20060511 treatment of db/db mice
Format: in vivo, mouse
Design: Blood glucose after refeeding AUC: unit not given here
Details: for Blood glucose after refeeding / Blood glucose after refeeding AUC: db/db
Protocol: db/db mice were acclimatized to a 6 h restricted feeding pattern from 10 am to 4 pm prior to the start of the experiment. For 28 days from 6 weeks of age, the mice received oral administration of 10 mg kg^−^1 of DS20060511 or vehicle once a day, 15 min prior to their feeding. On day 1 and day 28, the blood glucose levels were measured between 10 am to 4 pm. Blood glucose levels were measured using Glutest Every in blood samples collected from the tail vein. Daily food intake was monitored throughout the study, and the body weight, blood glucose, and plasma insulin were measured on day 1 and day 28. The hemoglobin A1c (HbA1c) level was also measured with a HLC-723G8 Automated Glycohemoglobin Analyzer on day 1 and day 28 (Tosoh, Tokyo, Japan). The triceps surae muscle (skeletal muscle), heart, epididymal WAT, and liver were excised immediately after euthanasia, and the tissue weights were measured on day 29. The glycogen contents of the muscle, heart, and liver were measured as described previously,[52] with some modifications. In brief, each tissue sample (50–100 mg) was weighed and boiled in 0.75 mL of 8 M KOH. After cooling, 0.25 mL of 1 M Na2SO4, followed by 2 mL of 99.5% ethanol, was added to precipitate the glycogen. The samples were centrifuged and the glycogen precipitates were dissolved in distilled water. Glycogen was degraded to glucose by treatment with amyloglucosidase (Sigma–Aldrich) at 55 °C for 60 min, and the glucose concentration was determined with Glucose CII Test Wako (FUJIFILM Wako Pure Chemical).

[1] = db/db mice, 10 mg/kg, Day 1, individual animals, 10 mg/kg
[2] = db/db mice, 10 mg/kg, Day 28, individual animals, 10 mg/kg

SMILES: COc1ccc2c(C)c(C(=O)O)ccc2c1C1C2=C(CC(C)(C)CC2=O)OC2=C1C(=O)CC(C)(C)C2 [DS20060511]
- Body weight (g) Day 1 [1]: 25.2 g and 26.3 g and 27.7 g and 27.0 g and 28.4 g
- Glucose (mg/dl) Day 1 [1]: 122 mg/dL and 152 mg/dL and 138 mg/dL and 136 mg/dL and 89 mg/dL and 180 mg/dL
- Insulin (ng/ml) Day 1 [1]: 2.27 ng/mL and 4.08 ng/mL and 4.23 ng/mL and 4.25 ng/mL and 2.30 ng/mL and 3.38 ng/mL
- Body weight (g) Day 28 [2]: 37.0 g and 39.8 g and 40.4 g and 39.6 g and 39.4 g and 41.1 g
- Glucose (mg/dl) Day 28 [2]: 167 mg/dL and 157 mg/dL and 194 mg/dL and 145 mg/dL and 132 mg/dL and 155 mg/dL
- Insulin (ng/ml) Day 28 [2]: 7.52 ng/mL and 5.68 ng/mL and 8.16 ng/mL and 6.98 ng/mL and 8.68 ng/mL and 6.72 ng/mL
- Tissue weight (g) WAT (db/db mice, 10 mg/kg, WAT, individual animals): 1.93 g and 2.01 g and 2.15 g and 1.84 g and 1.69 g and 2.14 g
- Tissue weight (g) Heart (db/db mice, 10 mg/kg, heart, individual animals): 0.11 g and 0.10 g
- Tissue weight (g) Liver (db/db mice, 10 mg/kg, liver, individual animals): 1.31 g and 1.43 g and 1.57 g and 1.42 g and 1.77 g
- Tissue weight (g) Muscle (db/db mice, 10 mg/kg, muscle, individual animals): 0.17 g and 0.18 g
- HbA1c (%) Afrer (db/db mice, DS20060511 10 mg/kg, after repeated treatment, individual animals, 10 mg/kg): 3.6% and 3.4% and 3.3% and 3.8%
- HbA1c (%) Delta (db/db mice, DS20060511 10 mg/kg, change from pre to after, individual animals, 10 mg/kg): 0.38% and 0.35% and 0.34% and 0.46% and 0.33% and 0.7%
- HbA1c (%) Pre (db/db mice, DS20060511 10 mg/kg, pre treatment (baseline), individual animals, 10 mg/kg): 3.2% and 3.3% and 3.1% and 2.9%
- blood glucose levels (in words) (db/db mice, 10 mg kg−1 day−1, day 1 to day 28): decreased significantly
- tissue weights of muscle, heart, WAT, liver; glycogen contents of muscle, heart, liver (db/db mice, 28-day treatment): no significant changes
- hemoglobin A1c (HbA1c) value (in words) (db/db mice, chronic treatment, 4 weeks): significantly reduced
- body weight, food intake, fasting blood glucose level, fasting plasma insulin levels (db/db mice, vs vehicle): no statistically significant differences
- Blood glucose after refeeding (10 mg/kg, Day 1, 0 hr, individual animals, 10 mg/kg): 91 mg/dL and 54 mg/dL and 72 mg/dL and 70 mg/dL and 85 mg/dL and 96 mg/dL
- Blood glucose after refeeding (10 mg/kg, Day 1, 0.5 hr, individual animals, 10 mg/kg): 138 mg/dL and 112 mg/dL and 86 mg/dL and 108 mg/dL and 117 mg/dL and 130 mg/dL
- Blood glucose after refeeding (10 mg/kg, Day 1, 1 hr, individual animals, 10 mg/kg): 162 mg/dL and 145 mg/dL and 120 mg/dL and 136 mg/dL and 126 mg/dL and 147 mg/dL
- Blood glucose after refeeding (10 mg/kg, Day 1, 2 hr, individual animals, 10 mg/kg): 220 mg/dL and 154 mg/dL and 182 mg/dL and 126 mg/dL and 135 mg/dL and 171 mg/dL
- Blood glucose after refeeding (10 mg/kg, Day 1, 4 hr, individual animals, 10 mg/kg): 189 mg/dL and 177 mg/dL and 142 mg/dL and 139 mg/dL and 179 mg/dL and 259 mg/dL
- Blood glucose after refeeding (10 mg/kg, Day 1, 6 hr, individual animals, 10 mg/kg): 261 mg/dL and 247 mg/dL and 262 mg/dL and 136 mg/dL and 157 mg/dL and 294 mg/dL
- Blood glucose after refeeding (10 mg/kg, Day 1, -0.25 hr, individual animals, 10 mg/kg): 124 mg/dL and 77 mg/dL and 78 mg/dL and 106 mg/dL and 118 mg/dL
- Blood glucose after refeeding AUC (10 mg/kg, Day 1, individual animals, 10 mg/kg): 1236.0 and 1043.0 and 1019.0 and 813.5 and 939.5 and 1321.3
- Blood glucose after refeeding (10 mg/kg, Day 28, 0 hr, individual animals, 10 mg/kg): 140 mg/dL and 130 mg/dL and 193 mg/dL and 159 mg/dL and 136 mg/dL
- Blood glucose after refeeding (10 mg/kg, Day 28, 0.5 hr, individual animals, 10 mg/kg): 171 mg/dL and 147 mg/dL and 157 mg/dL and 168 mg/dL and 130 mg/dL and 217 mg/dL
- Blood glucose after refeeding (10 mg/kg, Day 28, 1 hr, individual animals, 10 mg/kg): 187 mg/dL and 108 mg/dL and 139 mg/dL and 164 mg/dL and 142 mg/dL and 240 mg/dL
- Blood glucose after refeeding (10 mg/kg, Day 28, 2 hr, individual animals, 10 mg/kg): 230 mg/dL and 128 mg/dL and 167 mg/dL and 182 mg/dL and 163 mg/dL and 274 mg/dL
- Blood glucose after refeeding (10 mg/kg, Day 28, 4 hr, individual animals, 10 mg/kg): 256 mg/dL and 306 mg/dL and 290 mg/dL and 274 mg/dL and 297 mg/dL and 345 mg/dL
- Blood glucose after refeeding (10 mg/kg, Day 28, 6 hr, individual animals, 10 mg/kg): 334 mg/dL and 357 mg/dL and 336 mg/dL and 316 mg/dL and 282 mg/dL and 356 mg/dL
- Blood glucose after refeeding (10 mg/kg, Day 28, -0.25 hr, individual animals, 10 mg/kg): 157 mg/dL and 175 mg/dL and 184 mg/dL and 155 mg/dL and 151 mg/dL and 135 mg/dL
- Blood glucose after refeeding AUC (10 mg/kg, Day 28, individual animals, 10 mg/kg): 1526.0 and 1424.3 and 1491.8 and 1462.3 and 1397.8 and 1875.8
